According to patent US20110305637A1, “RADIOLABELLED PDE10 LIGANDS” (Janssen Pharmaceutica N.V., priority 2009, published 2011):

Biological target: T1, PDE10A (Rattus norvegicus, UniProt Q9QYJ6)
T1 construct: from tissue; host or cells: brain (striatum) of living male Wistar rats, in vivo microPET
T1 sequence (Q9QYJ6 1-794): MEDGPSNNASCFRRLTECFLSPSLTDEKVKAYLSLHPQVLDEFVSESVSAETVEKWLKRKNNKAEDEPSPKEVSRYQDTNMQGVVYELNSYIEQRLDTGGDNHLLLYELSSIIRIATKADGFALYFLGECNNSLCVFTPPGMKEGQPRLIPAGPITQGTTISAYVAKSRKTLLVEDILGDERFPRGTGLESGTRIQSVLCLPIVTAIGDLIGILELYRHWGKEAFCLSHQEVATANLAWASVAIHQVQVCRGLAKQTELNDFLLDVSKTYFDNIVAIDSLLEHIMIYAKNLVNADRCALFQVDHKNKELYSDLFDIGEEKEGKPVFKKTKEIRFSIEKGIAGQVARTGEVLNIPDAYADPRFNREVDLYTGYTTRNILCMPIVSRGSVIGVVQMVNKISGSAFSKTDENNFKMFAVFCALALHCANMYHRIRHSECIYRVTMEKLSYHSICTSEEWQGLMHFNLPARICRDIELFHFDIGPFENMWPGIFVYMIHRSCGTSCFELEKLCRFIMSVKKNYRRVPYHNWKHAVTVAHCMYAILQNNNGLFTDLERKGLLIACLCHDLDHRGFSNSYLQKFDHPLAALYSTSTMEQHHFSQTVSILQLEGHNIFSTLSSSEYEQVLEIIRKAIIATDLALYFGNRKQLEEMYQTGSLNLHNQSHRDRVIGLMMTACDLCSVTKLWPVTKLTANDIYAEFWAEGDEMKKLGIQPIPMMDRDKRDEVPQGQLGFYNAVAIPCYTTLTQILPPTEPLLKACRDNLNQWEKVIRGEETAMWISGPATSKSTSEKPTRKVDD
Assay: microPET imaging study
Type: in vivo
Method: (§1) Imaging experiments were performed on a Focus™ 220 microPET scanner (Concorde Microsystems, Knoxville, Tenn., USA) using male Wistar rats with body weight between 200 and 300 g. Animals were injected with about 74 MBq of high specific activity formulation of [^18F]B-1 via tail vein under anesthesia (2.5% Isoflurane in O2 at 1 L/min flow rate). Dynamic scans of 90 min were acquired in List mode. Acquisition data were Fourier rebinned in different time frames (4×15 s, 4×1 min, 5×3 min, 14×5 min) and reconstructed with Filtered Back Projection (FBP). An average image (frame 1 to 27) of the reconstructed data was spatially normalized to an in-house created [^11C]raclopride template of the rat brain in Paxinos coordinates. The affine transformation was then used to normalize all time frames of the dynamic dataset to allow automated and symmetric volumes of interest (VOIs) analyses. Time-activity curves (TAC) were generated for striatum, cortex and cerebellum for each individual scan, using PMOD software (v 3.0, PMOD Technologies Ltd., Zurich, Switzerland). The radioactivity concentration in the different brain regions was expressed as standardized uptake value (SUV) as a function of time p.i. of the radiotracer by normalization for body weight of the animal and injected dose. Since PDE10A is expressed at low level in the cerebellum, binding potential (BP) values were calculated using the multilinear reference tissue model developed by Ichise et al. with the cerebellum considered as reference, using the same software (PMOD). Rats (n=5) were used for baseline imaging of which 3 animals were used in pretreatment studies in which the non-radioactive analogue B-1 was administered subcutaneously at a dose of 5 mg/kg at 30 min prior to the radiotracer injection.
Imaging experiments were performed on a Focus™ 220 microPET scanner (Concorde Microsystems, Knoxville, Tenn., USA) using male Wistar rats with body weight between 350 and 480 g. For the baseline microPET study, rats (n=2) were injected with about 74 MBq of high specific activity formulation of [^18F]B-2 via tail vein under anesthesia (2.5% Isoflurane in O2 at 1 L/min flow rate). For the pretreatment experiment, the radioactivity dose was reduced to about 37 MBq. Pretreatment was done by administering the non-radioactive analogue B-2 subcutaneously at a dose of 2.5 mg/kg at 60 min prior to the tracer injection (n=1).
as §1, with “Dynamic” for “Imaging experiments were performed on a Focus™ 220 microPET scanner (Concorde Microsystems, Knoxville, Tenn., USA) using male Wistar rats with body weight between 200 and 300 g. Animals were injected with about 74 MBq of high specific activity formulation of [^18F]B-1 via tail vein under anesthesia (2.5% Isoflurane in O2 at 1 L/min flow rate). Dynamic”, “120” for “90”, “8×5 min, 10×6” for “14×5”, “31)” for “27)”, “(PMOD).” for “(PMOD). Rats (n=5) were used for baseline imaging of which 3 animals were used in pretreatment studies in which the non-radioactive analogue B-1 was administered subcutaneously at a dose of 5 mg/kg at 30 min prior to the radiotracer injection.”

[18F]CCCn1cc(-c2ccncc2)c(-c2ccc(OCc3ccc4ccccc4n3)cc2)n1 [[^18F]B-1]
binding potential (BP) value after non-radioactive analogue (B-1, 5 mg/kg s.c., 30 min prior to tracer): 0.11±0.10
time at which peak tissue concentrations in the brain were reached (baseline): within one minute
Peak striatum-to-cerebellum ratio (baseline, at 15 min post injection): 2.7
striatum-to-cerebellum ratio (baseline, until about 35 min post injection): higher than 2.5
binding potential (BP) value at baseline (baseline, cerebellum as reference): 0.58±0.17
reduction in BP values with pretreatment compared to baseline (non-radioactive B-1, 5 mg/kg s.c., 30 min prior): about 80%
striatum-to-cerebellum ratio after pre-treatment (pre-treated with non-radioactive B-1, 5 mg/kg s.c., 30 min prior): 1.5
